This data set deals with HSD17B13. Particulars: ASO, HepaRG.

“And” between values parts separate entries of the source, which are not always exact repeats. Equal entries are not always repeated. After the bases stand the sugars from the 5' end (letter, count) and the backbone: PS all phosphorothioate, else s phosphorothioate and o phosphodiester by linkage. Methylation of C is not given here. e = 2'-O-(2-methoxyethyl) (MOE); k = constrained ethyl (cEt); d = 2'-deoxy (DNA); m = 2'-O-methyl

Where the note is “1 µM”, GCCAGATTGCACAAAC (sugars k3 d10 k3, PS) showed a target mRNA inhibition of 60%.
The same measure, in the same setting: the same measure for “AGAATAGAGTTGCACC (sugars kkdddddddddkekek, PS)”: 59%; for ATAACTCTATTGATTG (sugars k3 d10 k3, PS): 39%; for CATAGAACTAGAACTC (sugars k3 d10 k3, PS): 19%.
For ACAACCCTTAACAAAC (sugars k3 d10 k3, PS), under “1 µM”, the target mRNA inhibition amounted to 26%.
For the sequence “AGGCUAGGGAAATCTT (sugars k3 d1 m1 d8 k3, PS)”, the target mRNA inhibition (1 µM) was determined as 41%.
Where the note is “1 µM”, CATCAAGCCCTTTTCA (sugars k3 d10 k3, PS) displayed a target mRNA inhibition of 23%.
AAATTTGTGAACCTGC (sugars k3 d10 k3, PS): the target mRNA inhibition (1 µM) was 26%.
For the sequence “CAGATTGGAATGCTAC (sugars k3 d9 k3 e1, PS)”, where the note is “1 µM”, the target mRNA inhibition stood at 61%.
For the setting “1 µM”, “CTGTGGCATGGCTACA (sugars kkdddddddddkekek, PS)” displayed a target mRNA inhibition of 33%.
Sequence TAAGTAGTCTGCCTGC (sugars k3 d10 k3, PS) had a target mRNA inhibition (1 µM) of 19%.
For the setting “1 µM”, AATAGAGTTGCACCGT (sugars k3 d10 k3, PS) showed a target mRNA inhibition of 48%.
With AGGCCATAATCTTGTG (sugars k3 d10 k3, PS), the target mRNA inhibition (1 µM) worked out at 33%.
Still for that read-out and setting: the same measure for AAAGCCCTATTCTTCG (sugars k3 d10 k3, PS): 65%; for “AATATTGAGGCACTGG (sugars k3 d9 k3 e1, PS)”: 36%.
In the case of ACAATATGGGATGAGG (sugars k3 d10 k3, PS), the target mRNA inhibition (0.02 µM) came to 29%; the target mRNA inhibition (0.078 µM) came to 7%; the target mRNA inhibition (0.313 µM) came to 43%; the target mRNA inhibition (1 µM) came out at 71%; the target mRNA inhibition (1.25 µM) came to 65%; the target mRNA inhibition (5 µM) amounted to 85%.
CTTTTTATAGACTGGG (sugars k3 d10 k3, PS) gave a target mRNA inhibition (1 µM) of 67%.
In the case of GTCCACTTGAATTCTG (sugars k3 d10 k3, PS), where the note is “1 µM”, the target mRNA inhibition was 18%.
“GTCTTAAACCTTCCCT (sugars k3 d9 k3 e1, PS)” showed a target mRNA inhibition (1 µM) of 50%.
Turning to CAATTTACTTTCAGCC (sugars k3 d10 k3, PS), the target mRNA inhibition (0.02 µM) was determined as 0%; the target mRNA inhibition (0.078 µM) came to 18%; the target mRNA inhibition (0.313 µM) was determined as 37%; the target mRNA inhibition (1 µM) was 71%; the target mRNA inhibition (1.25 µM) turned out to be 76%; the target mRNA inhibition (5 µM) came to 86%.
For the setting “1 µM”, AAGGAGTAGTGGAGCC (sugars k3 d10 k3, PS) came in with a target mRNA inhibition of 38%.
For the sequence TAGTACCAAGACACTA (sugars k3 d10 k3, PS), the target mRNA inhibition (1 µM) was determined as 27%.
In turn, ATGTCCAGGTTGAGAT (sugars k3 d10 k3, PS) had a target mRNA inhibition (1 µM) of 55%.
Under “1 µM”, TCTAAATTATTGCCTG (sugars k3 d10 k3, PS) came in with a target mRNA inhibition of 43%.
Under “1 µM”, CCATCATCGATGGAAG (sugars k3 d10 k3, PS) gave a target mRNA inhibition of 8%.
TCCAAGTAATTACTTC (sugars k3 d10 k3, PS) gave a target mRNA inhibition (0.02 µM) of 0%; a target mRNA inhibition (0.078 µM) of 3%; a target mRNA inhibition (0.313 µM) of 23%; a target mRNA inhibition (1 µM) of 72%; a target mRNA inhibition (1.25 µM) of 43%; a target mRNA inhibition (5 µM) of 67%.
ATATTGTTTAGCTGAT (sugars k3 d10 k3, PS) returned a target mRNA inhibition (1 µM) of 14%.
Where the note is “1 µM”, ATCATCGATGGAAGAA (sugars k3 d10 k3, PS) yielded a target mRNA inhibition of 30%.
As to TCAAAATGGTGGCGAG (sugars k3 d10 k3, PS), for the setting “1 µM”, the target mRNA inhibition stood at 31%.
On the same count and under the same terms, for “TCTTGACAATGGTTGA (sugars k3 d1 m1 d8 k3, PS)” the value was 56%.
Consider AAGTTACCAGAGCATT (sugars k3 d10 k3, PS), for which the target mRNA inhibition reads like this: (0.02 µM) 0%; (0.078 µM) 5%; (0.313 µM) 45%; (1 µM) 70%; (1.25 µM) 80%; (5 µM) 90%.
GACACTAATTTAGTCA (sugars k3 d10 k3, PS) had a target mRNA inhibition (1 µM) of 11%.
The sequence TTCACAAAAACTGGGC (sugars k3 d10 k3, PS) gave a target mRNA inhibition (1 µM) of 37%.
“CAGTCTTAAACCTTCC (sugars k3 d1 m1 d8 k3, PS)” returned a target mRNA inhibition (1 µM) of 59%.
Sequence GATGAGTAGGCAACTG (sugars k3 d10 k3, PS) came in with a target mRNA inhibition (1 µM) of 42%.
Sequence CTACATGACCTGGGTC (sugars k3 d10 k3, PS) showed a target mRNA inhibition (1 µM) of 59%.
Regarding TTGCAAAATGTGATGC (sugars k3 d10 k3, PS), the target mRNA inhibition (1 µM) came to 75%.
Still for that read-out and setting: the same measure for “TGTAAGAGTCAGTATC (sugars k3 d1 m1 d8 k3, PS)”: 29%; for ATAGTAATCACAAGTA (sugars k3 d10 k3, PS): 56%.
On the same count and under the same terms, the same measure for CTAGGATTAATCATGG (sugars k3 d10 k3, PS): 65%; for AACAATCAGGAGTTGC (sugars k3 d10 k3, PS): 31%.
Take GTTAGAATAGTCTTCA (sugars k3 d10 k3, PS): the target mRNA inhibition (1 µM) is 46%.
Same read-out and setting: the same measure for TCTATTATGCACTCTA (sugars k3 d10 k3, PS): 55%; for AAAACCGTCAAATAGG (sugars k3 d10 k3, PS): 28%.
For “TTCTTATGTAATAGCC (sugars kkdddddddddkekek, PS)”, the target mRNA inhibition (0.02 µM) was 8%; the target mRNA inhibition (0.078 µM) was 28%; the target mRNA inhibition (0.313 µM) is 52%; the target mRNA inhibition (1 µM) was determined as 78%; the target mRNA inhibition (1.25 µM) turned out to be 79%; the target mRNA inhibition (5 µM) was 82%.
Sequence GTAAGCTGAGAGTTCT (sugars k3 d10 k3, PS) registered a target mRNA inhibition (1 µM) of 49%.
Turning to AACCTATGTGTGCACC (sugars k3 d10 k3, PS), the target mRNA inhibition (1 µM) worked out at 73%.
Under “1 µM”, CATACCACATACCCAT (sugars k3 d10 k3, PS) displayed a target mRNA inhibition of 0%.
Same read-out and setting: for CTGGAAGATTAATCAT (sugars k3 d10 k3, PS) the value was 31%; for TCCTTGTGTAGTCCTA (sugars k3 d10 k3, PS), 61%; for GAATCATGATTGAATT (sugars k3 d10 k3, PS), 39%.
Same read-out and setting: the same measure for “GCTACTTGAACAGTCT (sugars k3 d9 k3 e1, PS)”: 60%; for “TATCAGACTTCTTACG (sugars k3 d1 m1 d8 k3, PS)”: 27%.
On to ATGATGTTCATGGCTT (sugars k3 d10 k3, PS), for which the target mRNA inhibition (1 µM) was found to be 72%.
For the setting “1 µM”, TCTGATGTCAGACCTC (sugars k3 d10 k3, PS) gave a target mRNA inhibition of 42%.
Take GCTGGTAAAGGTAAGG (sugars k3 d10 k3, PS): for the setting “1 µM”, the target mRNA inhibition came to 65%.
Consider “CACAUATGTGAAGAGC (sugars k3 d1 m1 d8 k3, PS)”, for which the target mRNA inhibition (1 µM) worked out at 65%.
Where the note is “1 µM”, “TGCTGCATTAATGCCA (sugars k3 d1 m1 d8 k3, PS)” displayed a target mRNA inhibition of 32%.
Consider “CACATATGTGAAGAGC (sugars k3 d9 k3 e1, PS)”, for which the target mRNA inhibition came out at 6% (0.02 µM); 9% (0.078 µM); 39% (0.313 µM); 74% (1 µM); 57% (1.25 µM); 78% (5 µM).
In turn, GTAAGGTAAAGTCTAA (sugars k3 d10 k3, PS) displayed a target mRNA inhibition (1 µM) of 37%.
Where the note is “1 µM”, ATATCCAGTAGGTGTG (sugars k3 d10 k3, PS) had a target mRNA inhibition of 55%.
For the sequence “CTCTUAGCTGTGCACT (sugars k3 d1 m1 d8 k3, PS)”, the target mRNA inhibition came to 16% (0.02 µM); 14% (0.078 µM); 33% (0.313 µM); 67% (1 µM); 52% (1.25 µM); 58% (5 µM).
Take “TAGAATAGTCTTCAGC (sugars k3 d9 k3 e1, PS)”: the target mRNA inhibition (1 µM) amounted to 50%.
As to “GTTGATATTCTGTGGC (sugars k3 d9 k3 e1, PS)”, the target mRNA inhibition was 23% (0.02 µM); 17% (0.078 µM); 49% (0.313 µM); 73% and 50% (1 µM); 61% (1.25 µM); 55% (5 µM).
Take TTTCTTATTGGTAAGT (sugars k3 d10 k3, PS): under “1 µM”, the target mRNA inhibition was determined as 44%.
Regarding AACTAGTGGTAATGGT (sugars k3 d10 k3, PS), where the note is “1 µM”, the target mRNA inhibition was determined as 32%.
On to GGCACTAAAGGTTTCT (sugars k3 d10 k3, PS), for which the target mRNA inhibition by setting is: (0.02 µM) 0%; (0.078 µM) 26%; (0.313 µM) 41%; (1 µM) 62%; (1.25 µM) 66%; (5 µM) 75%.
The sequence GGTCATTTAGAATACG (sugars k3 d10 k3, PS) gave a target mRNA inhibition (1 µM) of 39%.
The sequence CTAGGGAAATCTTTCA (sugars k3 d10 k3, PS) had a target mRNA inhibition (1 µM) of 48%.
The sequence TCCGTTATAAGTTTCA (sugars k3 d10 k3, PS) came in with a target mRNA inhibition (1 µM) of 65%.
Where the note is “1 µM”, “TGGTAACGGTGATCAA (sugars kkdddddddddkekek, PS)” yielded a target mRNA inhibition of 26%.
On the same count and under the same terms, the same measure for GGCTAGGGAAATCTTT (sugars k3 d10 k3, PS): 57%; for GCCTAGTTGCAATGAG (sugars k3 d10 k3, PS): 61%.
For CTACTTCACTATATTG (sugars k3 d10 k3, PS), where the note is “1 µM”, the target mRNA inhibition is 33%.
ATATACTAGGATTAGA (sugars k3 d10 k3, PS) returned a target mRNA inhibition (1 µM) of 33%.
Same read-out and setting: the same measure for CATATCTTACTCTGTG (sugars k3 d10 k3, PS): 47%; for CCATAATCTTGTGCTT (sugars k3 d10 k3, PS): 32%.

For the origin of these results see the OligoGym collection.
